Drawing on patent publication US8288367B2, “Substituted estratriene derivatives as 17BETA HSD inhibitors” (Solvay Pharmaceuticals GmBH, priority 2006, dated 2012), this text covers inhibition for 14 compounds.

In test [1] the target is T1, recombinant human 17β-HSD1 (Homo sapiens, UniProt P14061).
T1 construct: made in house; host or cells: Sf9 insect cells (baculovirus, Bac to Bac Expression System)
T1 sequence (P14061 1-328): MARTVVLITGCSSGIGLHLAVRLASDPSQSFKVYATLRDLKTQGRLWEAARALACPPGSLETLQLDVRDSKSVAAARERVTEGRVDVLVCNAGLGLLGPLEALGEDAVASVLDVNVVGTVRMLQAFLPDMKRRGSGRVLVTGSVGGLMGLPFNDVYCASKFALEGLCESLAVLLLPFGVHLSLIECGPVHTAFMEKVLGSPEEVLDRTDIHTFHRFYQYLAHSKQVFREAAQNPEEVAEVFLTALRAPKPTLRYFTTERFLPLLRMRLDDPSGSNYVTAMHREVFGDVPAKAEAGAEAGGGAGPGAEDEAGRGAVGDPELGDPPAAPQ
Nature of the test: Recombinant 17β-HSD1 assay (HPLC, 3H-estrone conversion). It counts as biochemical. The following applies: 30 nM estrone, 1 mM NADPH, 30 min RT, read-out: Inhibition of rec. 17β-HSD1; for inhibition at 0.1 µM: 100 nM compound; for inhibition at 1 µM: 0.5 h, 1 μm compound. The protocol: 17β-HSD1 or 17β-HSD2 purification: Recombinant 17β-HSD1 and 17β-HSD2 baculoviruses were generated by the “Bac to Bac Expression System” (Invitrogen). Recombinant 17β-HSD1 or 17β-HSD2 bacmids were transfected to Sf9 insect cells using “Cellfectin Reagent” (Invitrogen). 60 h later cells were harvested; the fractions including 17β-HSD1 or 17β-HSD2 were isolated as described by Puranen et al. (1994). Aliquots were stored frozen until determination of enzymatic activity.
Recombinant 17β-HSD1 assay: Recombinant protein homogenate (0.1 μg/ml) was incubated in 20 mM KH2PO4 pH 7.4 reaction buffer, including protease inhibitors (Complete Protease Inhibitor Cocktail tablet, Roche Diagnostics, 1697498), with 30 nM estrone (Sigma, E9750) as substrate, 800 000 cpm/ml ^3H-estrone (PerkinElmer, NET319001MC) as a tracer substrate, and 1 mM NADPH (Sigma, N1630) as a co-factor for 30 min at RT, in the presence of potential inhibitors at concentrations of 1 μM or 0.1 μM. Inhibitor stock solutions were prepared in DMSO. The enzyme reaction was stopped by addition of trichloroacetic acid (1% final concentration). Samples were centrifuged in a microtiter plate at 4000 rpm for 10 min. Supernatants were applied to reverse phase HPLC on a Waters Symmetry C18 column, equipped with a Waters Sentry Guard column. Isocratic HPLC runs were performed at RT at a flow rate of 1 ml/min of acetonitrile:water 48:52 as running solvent. Radioactivity was monitored in the eluate by a Packard Flow Scintillation Analyzer. Total radioactivity for estrone and estradiol were determined in each sample and percent inhibition of estradiol conversion by the respective inhibitor was calculated
For the calculation of % inhibition the following formula was used:
[formula] Percent inhibition was calculated as follows: % inhibition=100−% conversion

Test [2] deals with T2, recombinant human 17β-HSD2 (Homo sapiens, UniProt P37059).
T2 construct: made in house; host or cells: Sf9 insect cells (baculovirus, Bac to Bac Expression System)
T2 sequence (P37059 1-387): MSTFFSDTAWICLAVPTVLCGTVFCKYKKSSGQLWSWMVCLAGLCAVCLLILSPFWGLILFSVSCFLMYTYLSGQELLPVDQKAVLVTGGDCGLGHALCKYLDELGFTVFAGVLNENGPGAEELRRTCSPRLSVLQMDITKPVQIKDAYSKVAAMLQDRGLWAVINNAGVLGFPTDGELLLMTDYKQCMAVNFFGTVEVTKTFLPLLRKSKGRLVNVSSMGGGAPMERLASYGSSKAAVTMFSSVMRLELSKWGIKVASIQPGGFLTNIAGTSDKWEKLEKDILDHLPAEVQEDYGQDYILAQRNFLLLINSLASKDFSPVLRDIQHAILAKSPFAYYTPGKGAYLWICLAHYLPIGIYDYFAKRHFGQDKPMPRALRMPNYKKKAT
In words: Recombinant 17β-HSD2 assay (HPLC, 3H-estradiol conversion). It counts as biochemical. The following applies: 50 nM estradiol, 1 mM β-NAD, read-out: Inhibition of rec. 17β-HSD2; for inhibition at 0.1 µM: 100 nM compound; for inhibition at 1 µM: 1 μm compound. The protocol: 17β-HSD1 or 17β-HSD2 purification: Recombinant 17β-HSD1 and 17β-HSD2 baculoviruses were generated by the “Bac to Bac Expression System” (Invitrogen). Recombinant 17β-HSD1 or 17β-HSD2 bacmids were transfected to Sf9 insect cells using “Cellfectin Reagent” (Invitrogen). 60 h later cells were harvested; the fractions including 17β-HSD1 or 17β-HSD2 were isolated as described by Puranen et al. (1994). Aliquots were stored frozen until determination of enzymatic activity. Recombinant 17β-HSD2 assay: Recombinant 17β-HSD2 assay was performed as described for 17β-HSD1 but with following modifications: 6 μg/ml of recombinant protein homogenate, 50 nM Estradiol (Sigma, E8875) as a substrate, 800 000 cpm/ml ^3H-estradiol (PerkinElmer, NET317) as a tracer substrate and 1 mM β-NAD (Sigma N7004) as a co-factor were used. Total radioactivity for estrone and estradiol were determined in each sample and percent inhibition of estrone conversion by the respective inhibitor was calculated. For the calculation of % inhibition the following formula was used: [formula] Percent inhibition was calculated as follows: % inhibition=100−% conversion

`C[C@]12CC[C@@H]3c4ccc(B(O)O)cc4CC[C@H]3[C@@H]1[C@H](CCC(=O)N1CCOCC1)CC2=O` [Compound 33, [15beta-(3-morpholin-4-yl-3-oxopropyl)-17-oxoestra-1(10),2,4-trien-3-yl]boronic acid]: in test [1], the inhibition (usually the relative decrease from the control value, in per cent) at 0.1 µM stood at 20% and the inhibition at 1 µM turned out to be 59%. In test [2], the inhibition at 0.1 µM is -2.3% and the inhibition at 1 µM was -1.1%.
The matching figures for `C[C@]12CC[C@@H]3c4ccc(B(O)O)cc4CC[C@H]3[C@@H]1[C@H](CCC(=O)NCc1ccc3c(c1)OCO3)CC2=O` [Compound 34, [15beta-{3-[(1,3-benzodioxol-5-ylmethyl)amino]-3-oxopropyl}-17-oxoestra-1(10),2,4-trien-3-yl]boronic acid]: 47%, 65%, 3.2% and 0.4%.
The like results for `C[C@]12CC[C@@H]3c4ccc(B(O)O)cc4CC[C@H]3[C@@H]1[C@H](CCC(=O)N1CCCCC1)CC2=O` [Compound 35, [17-oxo-15beta-(3-oxo-3-piperidin-1-ylpropyl)estra-1(10),2,4-trien-3-yl]boronic acid] were, in that order, 57%, 56%, 4% and 1.5%.
Regarding `CCN(CC)C(=O)CC[C@@H]1CC(=O)[C@@]2(C)CC[C@@H]3c4ccc(B(O)O)cc4CC[C@H]3[C@H]12` [Compound 39, [15beta-[3-(diethylamino)-3-oxopropyl]-17-oxoestra-1(10),2,4-trien-3-yl]boronic acid], in test [1], the inhibition at 0.1 µM was found to be 74% and the inhibition at 1 µM turned out to be 88%. In test [2], the inhibition at 0.1 µM was found to be 1.8% and the inhibition at 1 µM was -0.6%.
The matching figures for `C[C@]12CC[C@@H]3c4ccc(B(O)O)cc4CC[C@H]3[C@@H]1[C@H](CCC(=O)Nc1ccc3c(c1)OCO3)CC2=O` [Compound 45, [15beta-[3-(1,3-benzodioxol-5-ylamino)-3-oxopropyl]-17-oxoestra-1(10),2,4-trien-3-yl]boronic acid]: 49%, 66%, -1% and -1.1%.
The matching figures for `C[C@]12CC[C@@H]3c4ccc(B(O)O)cc4CC[C@H]3[C@@H]1[C@@H](CCCC(=O)N1CCOCC1)CC2(F)F` [Compound 47, [17,17-difluoro-15alpha-(4-morpholin-4-yl-4-oxobutyl)estra-1(10),2,4-trien-3-yl]boronic acid]: 10%, 61%, 3.8% and 12.9%.
`C[C@]12CC[C@@H]3c4ccc(B(O)O)cc4CC[C@H]3[C@@H]1[C@@H](CCCC(=O)NCc1ccc3c(c1)OCO3)CC2(F)F` [Compound 50, [15alpha-{4-[(1,3-benzodioxol-5-ylmethyl)amino]-4-oxobutyl}-17,17-difluoroestra-1(10),2,4-trien-3-yl]boronic acid]: in test [1], the inhibition at 0.1 µM was found to be 40% and the inhibition at 1 µM is 57%. Besides, in test [2], the inhibition at 0.1 µM turned out to be 8% and the inhibition at 1 µM turned out to be 32.8%.
The like results for `COc1ccc(CCN(C)C(=O)CCC[C@H]2CC(F)(F)[C@@]3(C)CC[C@@H]4c5ccc(B(O)O)cc5CC[C@H]4[C@H]23)cc1OC` [Compound 51, [15alpha-(4-{[2-(3,4-dimethoxyphenyl)ethyl](methyl)amino}-4-oxobutyl)-17,17-difluoroestra-1(10),2,4-trien-3-yl]boronic acid] were, in that order, 37%, 62%, 2.8% and 7.8%.
For `C[C@]12CC[C@@H]3c4ccc(B(O)O)cc4CC[C@H]3[C@@H]1[C@@H](CCCC(=O)NCc1ccccc1)CC2(F)F` [Compound 54, [15alpha-[4-(benzylamino)-4-oxobutyl]-17,17-difluoroestra-1(10),2,4-trien-3-yl]boronic acid], in test [1], the inhibition at 0.1 µM turned out to be 41% and the inhibition at 1 µM stood at 58%. In addition, in test [2], the inhibition at 0.1 µM was 7.6% and the inhibition at 1 µM worked out at 25.2%.
The matching figures for `Cc1cnc(NC(=O)CC[C@@H]2CC(F)(F)[C@@]3(C)CC[C@@H]4c5ccc(B(O)O)cc5CC[C@H]4[C@H]23)s1` [Compound 58, [17,17-difluoro-15β-{3-[(5-methyl-1,3-thiazol-2-yl)amino]-3-oxopropyl}estra-1(10),2,4-trien-3-yl]boronic acid]: 23%, 55%, 6.8% and 11.6%.
On to `C[C@]12CC[C@@H]3c4ccc(B(O)O)cc4CC[C@H]3[C@@H]1[C@H](CCC(=O)NC1CCCCC1)CC2(F)F` [Compound 59, [15beta-[3-(cyclohexylamino)-3-oxopropyl]-17,17-difluoroestra-1(10),2,4-trien-3-yl]boronic acid], for which the inhibition at 0.1 µM in test [1] stood at 69%; in test [2], 0.6%. For the same compound, the inhibition at 1 µM came to 84% in test [1] and 15.2% in test [2].
Take `C[C@]12CC[C@@H]3c4ccc(B(O)O)cc4CC[C@H]3[C@@H]1[C@H](CCC(=O)NCc1cccnc1)CC2(F)F` [Compound 62, [17,17-Difluoro-15beta-{3-oxo-3-[(pyridin-3-ylmethyl)amino]propyl}estra-1(10),2,4-trien-3-yl]boronic acid]: in test [1], the inhibition at 0.1 µM was found to be 36% and the inhibition at 1 µM is 56%. Moreover, in test [2], the inhibition at 0.1 µM turned out to be 6.2% and the inhibition at 1 µM was determined as 8.3%.
As for `C[C@]12CC[C@@H]3c4ccc(B(O)O)cc4CC[C@H]3[C@@H]1[C@H](CCC(=O)NCc1ccc(F)cc1F)CC2(F)F` [Compound 65, [15beta-{3-[(2,4-difluorobenzyl)amino]-3-oxopropyl}-17,17-difluoroestra-1(10),2,4-trien-3-yl]boronic acid], in test [1], the inhibition at 0.1 µM came to 32% and the inhibition at 1 µM turned out to be 63%. In test [2], the inhibition at 0.1 µM was 5.8% and the inhibition at 1 µM was determined as 9.8%.
For `C[C@]12CC[C@@H]3c4ccc(B(O)O)cc4CC[C@H]3[C@@H]1[C@H](CCC(=O)Nc1ccc3c(c1)OCO3)CC2(F)F` [Compound 74, [15beta-[3-(1,3-benzodioxol-5-ylamino)-3-oxopropyl]-17,17-difluoroestra-1(10),2,4-trien-3-yl]boronic acid], in test [1], the inhibition at 0.1 µM was 55.6% and the inhibition at 1 µM amounted to 71.4%. Also, in test [2], the inhibition at 0.1 µM stood at 4.9% and the inhibition at 1 µM worked out at 5.5%.
